Data from patent publication US8461328B2, “Tricyclic heterocyclic compounds, compositions and methods of use thereof” (Genentech, Inc., priority 2010, dated 2013).

Legend:
Type in all cases: biochemical
[1] = target: T1, TYK2 (Homo sapiens, UniProt P29597); assay: TYK2 inhibition (Table 4)
T1 construct: made in house; host or cells: SF9 insect cells (baculovirus)
T1 sequence (P29597 873-1187): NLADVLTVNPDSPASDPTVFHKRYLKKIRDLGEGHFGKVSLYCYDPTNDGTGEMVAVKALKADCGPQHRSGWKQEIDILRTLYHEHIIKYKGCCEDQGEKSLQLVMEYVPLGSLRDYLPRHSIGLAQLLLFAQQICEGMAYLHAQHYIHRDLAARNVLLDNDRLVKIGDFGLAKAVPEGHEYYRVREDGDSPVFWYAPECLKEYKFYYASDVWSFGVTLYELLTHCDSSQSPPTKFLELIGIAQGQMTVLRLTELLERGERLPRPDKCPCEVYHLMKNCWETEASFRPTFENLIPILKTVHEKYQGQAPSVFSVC

[2] = target: T2, JAK2 (Homo sapiens, UniProt O60674); assay: JAK2 inhibition (Table 4); settings: read-out: JAK2 Ki
T2 construct: made in house; host or cells: SF9 insect cells (baculovirus)
T2 sequence (O60674 812-1132): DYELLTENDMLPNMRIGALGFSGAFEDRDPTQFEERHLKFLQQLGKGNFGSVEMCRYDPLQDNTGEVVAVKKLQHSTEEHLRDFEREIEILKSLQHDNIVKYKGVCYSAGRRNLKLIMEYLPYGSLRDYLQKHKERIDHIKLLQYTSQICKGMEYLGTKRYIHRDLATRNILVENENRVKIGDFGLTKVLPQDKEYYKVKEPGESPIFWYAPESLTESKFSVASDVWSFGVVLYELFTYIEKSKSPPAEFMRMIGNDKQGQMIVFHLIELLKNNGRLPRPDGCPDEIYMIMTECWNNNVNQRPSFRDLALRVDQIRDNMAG

[3] = target: T3, JAK3 (Homo sapiens, UniProt P52333); assay: JAK3 inhibition (Table 4); settings: read-out: JAK3 Ki
T3 construct: made in house; host or cells: SF9 insect cells (baculovirus)
T3 sequence (P52333 783-1124): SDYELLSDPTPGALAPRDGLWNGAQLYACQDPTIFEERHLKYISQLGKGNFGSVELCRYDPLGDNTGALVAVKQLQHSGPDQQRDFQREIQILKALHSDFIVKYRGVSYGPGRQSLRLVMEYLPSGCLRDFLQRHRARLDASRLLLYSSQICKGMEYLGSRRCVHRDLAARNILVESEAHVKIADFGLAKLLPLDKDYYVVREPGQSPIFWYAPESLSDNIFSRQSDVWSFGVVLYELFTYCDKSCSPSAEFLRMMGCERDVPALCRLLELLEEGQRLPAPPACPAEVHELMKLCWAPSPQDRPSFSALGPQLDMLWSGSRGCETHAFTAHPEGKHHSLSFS

[4] = target: T4, JAK1 (Homo sapiens, UniProt P23458); assay: JAK1 inhibition (Table 4); settings: read-out: JAK1 Ki
T4 construct: made in house; host or cells: SF9 insect cells (baculovirus)
T4 sequence (P23458 852-1154): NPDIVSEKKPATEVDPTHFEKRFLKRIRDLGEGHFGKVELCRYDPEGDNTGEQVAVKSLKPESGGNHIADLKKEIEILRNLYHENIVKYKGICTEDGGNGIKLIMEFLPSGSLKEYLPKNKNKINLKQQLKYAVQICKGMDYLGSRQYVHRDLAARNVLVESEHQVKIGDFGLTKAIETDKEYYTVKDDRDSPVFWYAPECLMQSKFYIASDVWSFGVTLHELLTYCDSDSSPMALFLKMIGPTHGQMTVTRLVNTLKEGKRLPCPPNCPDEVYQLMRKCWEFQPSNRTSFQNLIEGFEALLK

SMILES | Ki [1] [nM] | Ki [2] [nM] | Ki [3] [nM] | Ki [4] [nM]
O=C(N[C@H]1CC[C@H](n2cnc3cnc4[nH]ccc4c32)CC1)OC1CCCC1 [Example 347, [4-(6H-1,3,5,6-Tetraaza-as-indacen-1-yl)-cyclohexyl]-carbamic acid cyclopentyl ester] | 130 | 14.5 | 136 | 4.96
O=S(=O)(CCC(F)(F)F)NCCc1nc2cnc3[nH]ccc3c2n1C1CCCCC1 [Example 509, 3,3,3-Trifluoro-propane-1-sulfonic acid [2-(1-cyclohexyl-1,6-dihydro-1,3,5,6-tetraaza-as-indacen-2-yl)-ethyl]-amide] | 21.6 | 23.6 | 65.5 | 2.55
Cc1nc2cnc3[nH]ccc3c2n1[C@H]1CC[C@@H](NCCC#N)C1 [Example 723, 3-[(1R,3S)-3-(2-Methyl-6H-1,3,5,6-tetraaza-as-indacen-1-yl)-cyclopentylamino]-propionitrile] | 94.6 | 29.7 | 4.88 | 6.22
CC1(n2cnc3cnc4[nH]ccc4c32)CCN(S(=O)(=O)c2cccnc2)CC1 [Example 753, 1-[4-Methyl-1-(pyridine-3-sulfonyl)-piperidin-4-yl]-1,6-dihydro-1,3,5,6-tetraaza-as-indacene] | 289 | 76.1 | 296 | 18.4
C[C@@H](O)c1nc2cnc3[nH]ccc3c2n1[C@@H]1CCNC1 [Example 687, (R)-1-((R)-1-Pyrrolidin-3-yl-1,6-dihydro-1,2,3,5,6-tetraaza-as-indacen-2-yl)-ethanol] | 834 | 1480 | 858 | 167
CCN1CCC(n2c(C)nc3cnc4[nH]ccc4c32)C(F)(F)C1 (racemic) [Example 531, 1-(1-Ethyl-3,3-difluoro-piperidin-4-yl)-2-methyl-1,6-dihydro-1,3,5,6-tetraaza-as-indacene] | 21.2 | 4.58 | 4.23 | 1.77
CCN1CC[C@@H](n2c(CCNS(=O)(=O)C3CC3)nc3cnc4[nH]ccc4c32)[C@@H](F)C1 [Example 809, Cyclopropanesulfonic acid {2-[1-((3S,4R)-1-ethyl-3-fluoro-piperidin-4-yl)-1,6-dihydro-1,3,5,6-tetraaza-as-indacen-2-yl]-ethyl}-amide] | 381 | 46.6 | 162 | 5.67
CCN1CC[C@@H](n2nnc3cnc4[nH]ccc4c32)[C@@H](F)C1 [Example 522, 1-((3S,4R)-1-Ethyl-3-fluoro-piperidin-4-yl)-1,6-dihydro-1,2,3,5,6-pentaaza-as-indacene] | 356 | 56.9 | 180 | 38.5
CC(C)Cc1nc2cnc3[nH]ccc3c2n1C1CCN(Cc2ccccc2)CC1 [Example 224, 1-(1-Benzyl-piperidin-4-yl)-2-isobutyl-1,6-dihydro-1,3,5,6-tetraaza-as-indacene] | 1980 | 59.2 | 20.6 | 14.2
N#Cc1cccc(CN2CCC[C@@H](n3cnc4cnc5[nH]ccc5c43)C2)c1 [Example 45, 3-[(R)-3-(6H-1,3,5,6-Tetraaza-as-indacen-1-yl)-piperidin-1-ylmethyl]benzonitrile] | 129 | 18 | 27.5 | 7.58
c1ncc(CN[C@H]2CC[C@@H](n3cnc4cnc5[nH]ccc5c43)CC2)cn1 [Example 333, Pyrimidin-5-ylmethyl-[4-(6H-1,3,5,6-tetraaza-as-indacen-1-yl)-cyclohexyl]-amine] | 59.1 | 25.3 | 170 | 11.7
CC(C)(C)OC(=O)N1CCCC[C@@H]1CN[C@H]1CC[C@H](n2cnc3cnc4[nH]ccc4c32)CC1 [Example 563, trans (R)-2-{[4-(6H-1,3,5,6-Tetraaza-as-indacen-1-yl)-cyclohexylamino]-methyl}-piperidine-1-carboxylic acid tert-butyl ester] | 3320 | 611 | 2360 | 91
N#CCCN1CCC(n2c(CO)nc3cnc4[nH]ccc4c32)CC1 [Example 239, 3-[4-(2-Hydroxymethyl-6H-1,3,5,6-tetraaza-as-indacen-1-yl)-piperidin-1-yl]-propionitrile] | 7.39 | 5.1 | 10.4 | 1.53
N#Cc1ccc(S(=O)(=O)N2CCC[C@@H](n3cnc4cnc5[nH]ccc5c43)C2)cc1 [Example 360, 4-[(R)-3-(6H-1,3,5,6-Tetraaza-as-indacen-1-yl)-piperidine-1-sulfonyl]-benzonitrile] | 40.8 | 8.12 | 37.2 | 8.43
N#CCN1CCC[C@H]1C(=O)N1CCC(n2cnc3cnc4[nH]ccc4c32)CC1 [Example 146, {(S)-2-[4-(6H-1,2,3,5,6-Tetraaza-as-indacen-1-yl)-piperidine-1-carbonyl]-pyrrolidin-1-yl}-acetonitrile] | 1730 | 190 | 2770 | 150
Cc1nc2cnc3[nH]ccc3c2n1C1CCN(CC(F)(F)F)CC1 [Example 587, 2-Methyl-1-[1-(2,2,2-trifluoro-ethyl)-piperidin-4-yl]-1,6-dihydro-1,2,3,5,6-tetraaza-as-indacene] | 8.02 | 2.16 | 8.35 | 0.61
C[C@@H](O)c1nc2cnc3[nH]ccc3c2n1[C@H]1CC[C@@H](NCC(F)(F)F)C1 [Example 1004, (R)-1-{1-[(1S,3R)-3-(2,2,2-Trifluoro-ethylamino)-cyclopentyl]-1,6-dihydro-1,3,5,6-tetraaza-as-indacen-2-yl}-ethanol] | 17 | 63 | 44.4 | 1.69
CS(=O)(=O)CCN1CCC[C@@H](n2cnc3cnc4[nH]ccc4c32)C1 [Example 57, 1-[(R)-1-(2-Methanesulfonyl-ethyl)-piperidin-3-yl]-1,6-dihydro-1,3,5,6-tetraaza-as-indacene] | 45.8 | 9.05 | 12 | 5.21
OCc1nc2cnc3[nH]ccc3c2n1C1CCCOC1 (single isomer, unassigned) [Example 464, [1-(Tetrahydro-pyran-3-yl)-1,6-dihydro-1,3,5,6-tetraaza-as-indacen-2-yl]-methanol] | 187 | 224 | 412 | 56.9
Cc1nc2cnc3[nH]ccc3c2n1C1CCC2CC(=O)NC2C1 (single isomer, unassigned) [Example 112a, 6-(2-Methyl-6H-1,2,3,5,6-tetraaza-as-indacen-1-yl)-octahydro-indol-2-one] | 630 | 58.3 | 300 | 64.4
O=C(CN1CCCCC1=O)N1CCC(n2cnc3cnc4[nH]ccc4c32)CC1 [Example 441, 1-{2-Oxo-2-[4-(6H-1,3,5,6-tetraaza-as-indacen-1-yl)-piperidin-1-yl]-ethyl}-piperidin-2-one] | 832 | 179 | 1530 | 55.8
CCC(C)S(=O)(=O)NCCc1nc2cnc3[nH]ccc3c2n1C1CCN(CCC#N)CC1 (racemic) [Example 369, Butane-2-sulfonic acid (2-{1-[1-(2-cyano-ethyl)-piperidin-4-yl]-1,6-dihydro-1,3,5,6-tetraaza-as-indacen-2-yl}-ethyl)-amide] | 71.8 | 14.4 | 25.5 | 2.74
Cc1nc2cnc3[nH]ccc3c2n1[C@@H]1CCC[C@](C)(O)C1 [Example 890, (1S,3R)-1-Methyl-3-(2-methyl-6H-1,3,5,6-tetraaza-as-indacen-1-yl)-cyclohexanol] | 133 | 38.1 | 36.9 | 37.6
CC(F)(F)CCc1nc2cnc3[nH]ccc3c2n1C1CCN(CCC#N)CC1 [Example 817, 3-{4-[2-(3,3-Difluoro-butyl)-6H-1,3,5,6-tetraaza-as-indacen-1-yl]-piperidin-1-yl}-propionitrile] | 207 | 43 | 63.7 | 8.58
OCc1nc2cnc3[nH]ccc3c2n1C1CCCOC1 (single isomer, unassigned) [Example 463, [1-(Tetrahydro-pyran-3-yl)-1,6-dihydro-1,3,5,6-tetraaza-as-indacen-2-yl]-methanol] | 55.5 | 74.9 | 191 | 12.2
CC(C)(C)NCCOCc1nc2cnc3[nH]ccc3c2n1C1CCN(CCC#N)CC1 [Example 833, 3-{4-[2-(2-tert-Butylamino-ethoxymethyl)-6H-1,3,5,6-tetraaza-as-indacen-1-yl]-piperidin-1-yl}-propionitrile] | 125 | 14 | 101 | 18.1
c1cc2c(ncc3nnn(C4CCNCC4)c32)[nH]1 [Example 231] | 1030 | 395 | 1140 | 86.6
NCC(F)(F)c1nc2cnc3[nH]ccc3c2n1C1CCN(Cc2cccnc2)CC1 [Example 588, 2,2-Difluoro-2-[1-(1-pyridin-3-ylmethyl-piperidin-4-yl)-1,6-dihydro-1,2,3,5,6-tetraaza-as-indacen-2-yl]-ethylamine] | 584 | 13.3 | 5.73 | 5.81
